Assay results taken from patent US10328075B2, “Method of treatment and compounds for use therein” (Baker Heart and Diabetes Institute, priority 2015, dated 2019).

Columns and labels:
hFPR2 [1] = target: T1, hFPR2 (Homo sapiens, UniProt P25090); assay: [Ca2+]i mobilization in FlpIn-CHO cells stably expressing hFPR2; assay type: cell-based; conditions: for Emax: Flp-In-CHO; for ΔLog(τ/KA), [Ca^2+]i mobilization, hFPR2-Flpln-CHO: normalized transduction coefficient, reference agonist Cmpd43; for Log(τ/KA), [Ca^2+]i mobilization, hFPR2-Flpln-CHO: transduction coefficient; for EC50: read-out: pEC50, [Ca^2+]i mobilization, hFPR2-Flpln-CHO (converted)
T1 construct: expressed in transfected cells
T1 sequence (P25090 1-351): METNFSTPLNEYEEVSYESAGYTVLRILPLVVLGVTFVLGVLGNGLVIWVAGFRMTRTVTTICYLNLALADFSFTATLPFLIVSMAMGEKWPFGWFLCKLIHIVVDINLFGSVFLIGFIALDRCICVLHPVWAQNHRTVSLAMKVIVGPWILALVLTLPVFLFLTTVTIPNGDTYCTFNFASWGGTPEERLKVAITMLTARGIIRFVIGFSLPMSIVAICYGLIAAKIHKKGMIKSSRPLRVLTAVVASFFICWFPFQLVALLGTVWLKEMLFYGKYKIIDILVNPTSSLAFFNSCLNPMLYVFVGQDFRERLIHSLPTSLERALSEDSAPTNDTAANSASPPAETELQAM
Excerpt: (§1) cDNDA construct and generation of stable cell lines: cDNA in pcDNA3.1^+ encoding the human formyl peptide receptors (FPR) subtypes, hFPR1, hFPR2 and hFPR3 was obtained from Invitrogen. The sequences for 3 hFPR receptors were amplified by PCR and cloned into the Gateway entry vector, pDONR202™, using the BP clonase enzyme mix, according to the manufactures' instructions (Invitrogen Inc, Carlsbad, Calif., USA). All hFPR receptors constructs in pDONR201™ were subsequently transfected into the pEF5/FRT/V5/dest vector using the LR clonase enzyme mix (Invitrogen). Receptor constructs (pEF5/FRT/V5/dest) were used to transfect FIp-In CHO cells as described previously (Valant C et al., PNAS, 2014). Cells were selected using 500 μg/mL hydromycin to generate cell lines stably expressing each receptor construct. Cells were maintained and cultured in high glucose DMEM supplemented with 10% FBS, 16 mM HEPES and 500 μg/mL hydromycin at 37° C. under a humidified atmosphere containing 5% CO2.
(§2) In the various assays described below, cells were plated into 96-well transparent cell culture plates at 4×10^4 cells per well, cultured overnight in serum-free media at 37° C. in 5% CO2.
Intracellular calcium mobilization: Intracellular calcium mobilization was assayed as described previously (Keov, P et al., 2014). Briefly, cells were washed once using HEPES buffered saline (HBS) solution [150 mM NaCl, 2.2 mM CaCl2, 2.6 mM KCl, 1.2 mM MgCl2, 10 mM HEPEs, 10 mM D-Glucose, 0.5% (w/v) bovine serum albumin (BSA) and 4 mM probenecid] at pH 7.4, then treated with Fluo-4-AM (1 μM, in HBS/BSA/probenecid) for 60 min at 37° C. in 5% CO2 in the dark. Cells were then further washed and placed in HBS/BSA/probenecid solution for ligation addition and assay using the FLEXstation 3 plate reader (Molecular Devices, Sunnyvale, Calif.). For all experiments, peak change in fluorescence signal was normalized to the cellular response to 100 μM ATP, which was used as an internal positive control.
(§3) Data analysis: All data were analysed using GraphPad Prism 6.0 (GraphPad Software, San Deigo, Calif., USA). Where appropriate, concentration-response curves were fitted to derive the maximal agonist effect (Emax), and the ligand potency estimate (pEC50), where Emax is the maximal possible response of the system (not the agonist), basal is the basal level of response in the absence of agonist, and pEC50 is the negative logarithm of the agonist concentration that gives a response halfway between Emax and basal.
(§4) In the present study, FIp-IN CHO cells and Gateway plasmid were obtained from Invitrogen Inc (Carlsbad, Calif., USA). The sequences for all 3 known human FPRs (hFPR1, hFPR2 and hFPR3) were amplified by PCR and cloned into the Gateway entry vector, pDONR202TM, using the BP clonase enzyme mix, according to the manufacturers' instructions. The hFPR pDONR201TM constructs were subsequently transfected into the pEF5/FRT/V5/dest vector using the LR clonase enzyme mix (Invitrogen). Receptor constructs (pEF5/FRT/V5/dest) were used to transfect FIp-IN CHO cells, as described previously (Valant et al. 2014). Cells were selected using 500 μg/mL hydromycin to generate cell lines stably expressing each human receptor construct. Cells were maintained and cultured in high glucose Dulbecco's modified eagle medium (DMEM) supplemented with 10% fetal bovine serum (FBS, from JRH Biosciences, Lenexa, Kans., USA) and 500 μg/mL hydromycin B (Invitrogen Inc) at 37° C. under a humidified atmosphere containing 5% CO2. Cell were plated into 96-well transparent cell culture plates at 4×10^4 cells per well, cultured overnight in serum-free media at 37° C. in 5% CO2.
(ii) Intracellular Ca2+ mobilization: Intracellular Ca2+ mobilization was determined in stably-transfected recombinant hFPR CHO cells, as described previously (Valant et al. 2014).

hFPR2 [2] = target: T1, hFPR2; assay: Inhibition of forskolin-stimulated cAMP accumulation in hFPR2-FlpIn-CHO cells; assay type: cell-based; conditions: for ΔLog(τ/KA), inhibition of cAMP accumulation, hFPR2-Flpln-CHO: normalized transduction coefficient, reference agonist Cmpd43; for Log(τ/KA), inhibition of cAMP accumulation, hFPR2-Flpln-CHO: transduction coefficient; for Effect on the cAMP response at hFPR2: over the concentration range tested
Excerpt: as §1, §2
cAMP Accumulation: CHO-hFPR1, -hFPR2 and -hFPR3 stable transfected cells were plated into 96-well plates and cultured overnight at 37° C. in 5% CO2. Cells were washed with PBS, and cultured overnight. […] Cells were lysed in detection buffer (dH2O, 0.3% Tween 20, 5 mM HEPES, 0.1% BSA). Lysates were transferred to a 384-well plate and mixtures of detection buffer/donor bead-conjugated anti-cAMP antibody and detection buffer: biotinylated cAMP: acceptor bead-conjugated streptavidin were added to the lysates according to the PerkinElmer cAMP Alphascreen protocol. Under low-light conditions, a 1:50 (v:v) dilution of AlphaScreen acceptor beads: stimulation buffer was prepared, 1:150 (v:v) dilution of donor beads and 50 nM biotinylated cAMP in detection buffer was prepared in a 384-well opaque optiplates. Plates were incubated in the dark at room temperature overnight before the fluorescence signal was measured by use of a Fusion-α plate reader (PerkinElmer Life and Analytical Sciences). Data were normalized to the response elicited by 10 μM forskolin at the same time point.
as §3, §4

[3] = Table 1, percentage of [Ca^2+]i mobilization elicited by ATP, read-out: Emax (%), [Ca^2+]i mobilization, hFPR2-Flpln-CHO
[4] = Table 8, percent of response elicited by ATP, read-out: Emax, [Ca^2+]i mobilization, hFPR2-Flpln-CHO
[5] = Table 4, percentage inhibition of forskolin-stimulated cAMP accumulation, read-out: Emax (%), inhibition to cAMP accumulation, hFPR2-Flpln-CHO
[6] = Table 8, percent inhibition of forskolin-induced cAMP accumulation, read-out: Emax, inhibition of cAMP accumulation, hFPR2-Flpln-CHO

SMILES	Emax (hFPR2 [1]; [3]) [%]	Emax (hFPR2 [1]; [4]) [%]	ΔLog(τ/KA), [Ca^2+]i mobilization, hFPR2-Flpln-CHO (hFPR2 [1]; Table 8)	Log(τ/KA), [Ca^2+]i mobilization, hFPR2-Flpln-CHO (hFPR2 [1]; Table 8)	Potency range of Ca^2+ mobilization in hFPR2-CHO cells (hFPR2 [1]; in words)	Emax (hFPR2 [2]; [5]) [%]	ΔLog(τ/KA), inhibition of cAMP accumulation, hFPR2-Flpln-CHO (hFPR2 [2]; Table 8)	Emax (hFPR2 [2]; [6]) [%]	Log(τ/KA), inhibition of cAMP accumulation, hFPR2-Flpln-CHO (hFPR2 [2]; Table 8)	Effect on the cAMP response at hFPR2 (hFPR2 [2])	EC50 (hFPR2 [1]; Table 1) [nM]	EC50 (hFPR2 [1]; Table 8) [nM]	EC50 (hFPR2 [2]; Table 4, read-out: pEC50, inhibition to cAMP accumulation, hFPR2-Flpln-CHO (converted)) [nM]	EC50 (hFPR2 [2]; Table 8, read-out: pEC50, inhibition of cAMP accumulation, hFPR2-Flpln-CHO (converted)) [nM]
CSCC[C@H](NC=O)C(=O)N[C@@H](CC(C)C)C(=O)N[C@@H](Cc1ccccc1)C(=O)O [fMLP, N-formyl-Met-Leu-Phe]	38 ± 4	38 ± 4	−2.2 ± 0.3	5.4 ± 0.1	micromolar range	10 ± 8	−1.6 ± 0.2	10 ± 8	4.9 ± 0.1	caused an inhibition of the cAMP response				
CC(C)C1C(NC(=O)Nc2ccc(Cl)cc2)C(=O)N(c2ccccc2)N1C (centres unmarked) [BIDI-002]	51 ± 3	51 ± 3	0.0	7.7 ± 0.3		66 ± 6	0.0	66 ± 6	6.5 ± 0.1	caused an inhibition of the cAMP response	20.9	20	170	251
